Laboratory results taken from paper PMC11268423 (Science Advances, 2024).
Several values for one entry are separate records, joined by “and”; a condition that tells them apart may be missing. Identical values can stand only once.

Experiments:
SARS-CoV-2 M^pro T304I = details: cited from earlier work
[1] = system: SARS-CoV-2 M^pro T304I mutant virus; type: cell-based
[2] = system: SARS-CoV-2 M^pro T21I+S144A+T304I mutant virus; type: cell-based
SARS-CoV-2 M^pro E166V = details: cited from earlier work
SARS-CoV-2 M^pro T21I = details: cited from earlier work
SARS-CoV-2 M^pro L50F = details: cited from earlier work

## CC(C)(C)[C@H](NC(=O)C(F)(F)F)C(=O)N1C[C@H]2[C@@H]([C@H]1C(=O)N[C@H](C#N)C[C@@H]1CCNC1=O)C2(C)C [Nirmatrelvir]
SARS-CoV-2 M^pro T304I
  fold resistance to nirmatrelvir: 5.5 fold
[1]
  Fold over WA-1: 3.4 fold
[2]
  Fold over WA-1: > 20 fold and 27.8 fold
SARS-CoV-2 M^pro E166V
  fold resistance to nirmatrelvir in vitro: up to 288 fold
SARS-CoV-2 M^pro T21I
  fold resistance to nirmatrelvir: 4.6 fold
SARS-CoV-2 M^pro L50F
  fold resistance to nirmatrelvir: 4.2 fold
